Test results: patent US20070203066A1, “Compositions and methods for inhibiting cellular proliferation” (priority 2005, published 2007)
Where two headings read alike, the source gives them in different places. Non-standard residues stand in square brackets, D forms with d. Primed or numbered codes have the meaning given here. No end group written: not given here. Ida = iminodiacetic acid linker, its two carboxyls bind the Lys side-chain amines of two peptides, giving a homodimer; Ida(3) = iminodiacetic acid linker, Lys side-chain amines bound to its two carboxyl groups; Ida(4) = iminodiacetic acid linker (dimerization linker bound to lysine side chain); Ida″ = iminodiacetic acid linker bound to the Lys side-chain amine, forming a dimer; Cha = N[C@@H](CC1CCCCC1)C(=O)O

Test system: HUVECs
Type: cell-based
Outline: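 HUVECs seeded at 5,000 cells/well in EBM with 2% FCS, adhered ≥12 hours, then stimulated with bFGF 10 ng/ml or VEGF 5 ng/ml plus varying peptide concentrations. After 48 hours at 37 ° C, 5% CO2, proliferation inhibition read by BrdU incorporation.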

[1] = HUVEC proliferation, bFGF at 10 ng/ml or VEGF at 5 ng/ml, 48 hours, BrdU incorporation, read-out: IC50 on HUVECs

Row | Compound | IC50 [1] | IC50 (48 h)
1 | 512 (Ac-ARRRRGRVAIYFK; not fully specified (C-terminus); also: homodimer via Ida linker at Lys13 side chain) [compound 512] | < 10 µM | –
2 | 270 (Ac-RRRRRQAVAINFK-NH2; not fully specified (residue 13); also: homodimer: Lys13 side chain bound to Ida linker) [compound 270] | < 10 µM | –
3 | RKKQRVKIIFV [compound 89] | > 30 µM | –
4 | 503 (Ac-PRRLRQAVAIYFK; not fully specified (residue 13, C-terminus); also: homodimer via Ida linker on Lys13 side chain) [compound 503] | < 10 µM | –
5 | 256 (Ac-ARRRRQRV[dA]IIFK; not fully specified (C-terminus); also: homodimer: side chain of Lys13 bound to an Ida linker) [compound 256] | < 10 µM | –
6 | 416 (Ac-ARRRRQAVRIKF; not fully specified (residue 11); also: homodimer via Ida linker on Lys side chains, linker at 11 via Ida, other end not in the chain) [compound 416] | < 10 µM | –
7 | 276 (XRRRRQHVRIYFK; not fully specified; Xaa = Acylated Histidine; The side chain of Lysine at position 13 is covalently bound to an Ida linker forming a homodimer of residues 1 through 13.) [compound 276] | < 10 µM | –
8 | 476 (Ac-PRRRPQAVAIYFK(Ida(3)); not fully specified (C-terminus); also: homodimer via Ida linker on Lys13 side chain) [compound 476] | < 10 µM | –
9 | 301 (Ac-RRRRRQAVRITITFK-NH2; not fully specified (residue 15); also: homodimer: Lys15 side chain bound to Ida linker) [compound 301] | < 10 µM | –
10 | RKKQRVKIIF [compound 84] | > 30 µM | –
11 | CC[C@H](C)[C@H](NC(=O)[C@H](C)NC(=O)[C@@H](NC(=O)[C@H](CCSC)NC(=O)[C@H](CCC(N)=O)NC(=O)[C@H](CCCNC(=N)N)NC(=O)[C@H](CCCNC(=N)N)NC(=O)[C@H](CCCNC(=N)N)NC(=O)[C@H](CCCNC(=N)N)NC(=O)[C@H](C)NC(C)=O)C(C)C)C(=O)N[C@@H](Cc1ccc(O)cc1)C(=O)N[C@@H](Cc1ccccc1)C(=O)N[C@@H](CCCCNC(=O)CN(CC(=O)NCCCC[C@H](NC(=O)[C@H](Cc1ccccc1)NC(=O)[C@H](Cc1ccc(O)cc1)NC(=O)[C@@H](NC(=O)[C@H](C)NC(=O)[C@@H](NC(=O)[C@H](CCSC)NC(=O)[C@H](CCC(N)=O)NC(=O)[C@H](CCCNC(=N)N)NC(=O)[C@H](CCCNC(=N)N)NC(=O)[C@H](CCCNC(=N)N)NC(=O)[C@H](CCCNC(=N)N)NC(=O)[C@H](C)NC(C)=O)C(C)C)[C@@H](C)CC)C(N)=O)C(=O)CCNC(=O)OC(C)(C)C)C(N)=O [Peptide 385] | – | < 10 µM
12 | 280 (Ac-RRRRAQAVAIYFK-NH2; not fully specified (residue 13); also: homodimer via Ida linker on Lys13 side chain) [compound 280] | < 10 µM | –
13 | ATKRKRKKQRVKIIFVQNM [compound 123] | < 10 µM | –
14 | 344 (Ac-ARRRRQRVAIY[Cha]K-NH2; not fully specified (residue 13); also: homodimer: Lys13 side chains joined by Ida (iminodiacetic acid) linker) [compound 344] | < 10 µM | –
15 | 456 (Ac-KRRRRQAVAIVF; not fully specified (residue 1); also: homodimer via Ida linker on K1 side chain) [compound 456] | > 30 µM | –
16 | 464 (Ac-ARRERQAVAIYFK(Ida(3)); not fully specified (C-terminus); also: homodimer via Ida linker on Lys side chains, linker at 13 via Ida, other end not in the chain) [compound 464] | < 10 µM | –
17 | 227 (Ac-ARRRRQRVAIWFK; also: homodimer via Ida linker on side chain of Lys13) [compound 227] | < 10 µM | –
18 | KRKKQRVKIIFV [compound 88] | > 30 µM | –
19 | 474 (Ac-PRRRMQAVAIYFK(Ida(3)); not fully specified (C-terminus); also: homodimer via Ida linker on Lys13 side chain) [compound 474] | 10 to 30 µM | –

Row | Compound | IC50 [1] | IC50 (48 h)
20 | 431 (Ac-ARRRRQAVAIYK(Ida(4))F; also: homodimer via Ida linker at K12) [compound 431] | < 10 µM | –
21 | 324 (Ac-RRHRRQHVRIYFK(Ida)-NH2; also: homodimer via Ida linker on Lys13 side chain) [compound 324] | < 10 µM | –
22 | 468 (Ac-ARRIRQAVAIYFK(Ida(3)); not fully specified (C-terminus); also: homodimer via Ida linker on Lys13 side chain) [compound 468] | > 30 µM | –
23 | 177 (Ac-RRRRAQRVRIIF; also: homodimer via C-terminal Lys linker) [compound 177] | < 10 µM | –
24 | 506 (Ac-ARRRRQRVAIYFKGGRGDSP; also: homodimer via Ida linker at Lys13 side chain) [compound 506] | < 10 µM | –
25 | 178 (Ac-RRRRRQAVRIIF; also: dimer: C-terminus of Phe12 of each chain bound to one amino group of a Lys linker) [compound 178] | < 10 µM | –
26 | RKRKKQRVKIIFV [compound 90] | 10 to 30 µM | –
27 | 419 (Ac-ARRRRQQVAIYFK; not fully specified (residue 13, C-terminus); also: homodimer of residues 1-13 via Ida linker on K13 side chain) [compound 419] | < 10 µM | –
28 | 274 (Ac-RARRRQAVAIWFK-NH2; not fully specified (residue 13); also: homodimer via Ida linker on Lys13 side chain) [compound 274] | < 10 µM | –
29 | 472 (Ac-PRRRGQAVAIYFK(Ida(3)); not fully specified (C-terminus); also: homodimer via Ida linker on Lys13 side chain) [compound 472] | > 30 µM | –
30 | 498 (Ac-PRSRRQAVAIYFK(Ida″); not fully specified (C-terminus); also: homodimer via Ida linker on Lys13 side chain) [compound 498] | < 10 µM | –
31 | 394 (Ac-ARRRRQAVSIYFK; not fully specified (residue 13, C-terminus); also: homodimer of residues 1-13 via Ida linker at Lys13 side chain) [compound 394] | < 10 µM | –
32 | CC[C@@H](C)[C@@H](NC(=O)[C@@H](NC(=O)[C@H](C)NC(=O)[C@@H](NC(=O)[C@H](CCCNC(=N)N)NC(=O)[C@H](CCC(N)=O)NC(=O)[C@H](CCCNC(=N)N)NC(=O)[C@H](CCCNC(=N)N)NC(=O)[C@H](CCCNC(=N)N)NC(=O)[C@H](CCCNC(=N)N)NC(=O)[C@H](C)NC(C)=O)C(C)C)[C@@H](C)CC)C(=O)N[C@@H](Cc1ccccc1)C(=O)N[C@@H](CCCCNC(=O)CN(CC(=O)NCCCC[C@H](NC(=O)[C@H](Cc1ccccc1)NC(=O)[C@H](NC(=O)[C@@H](NC(=O)[C@H](C)NC(=O)[C@@H](NC(=O)[C@H](CCCNC(=N)N)NC(=O)[C@H](CCC(N)=O)NC(=O)[C@H](CCCNC(=N)N)NC(=O)[C@H](CCCNC(=N)N)NC(=O)[C@H](CCCNC(=N)N)NC(=O)[C@H](CCCNC(=N)N)NC(=O)[C@H](C)NC(C)=O)C(C)C)[C@@H](C)CC)[C@H](C)CC)C(N)=O)C(=O)CCNC(=O)OC(C)(C)C)C(N)=O [Peptide 254] | – | < 10 µM
33 | 359 (Ac-RRRHHQHVRIYFK(Ida(3))-NH2; also: homodimer via Ida linker on Lys13 side chain, Boc on Ida amine) [compound 359] | < 10 µM | –
34 | 385 (Ac-ARRRRQMVAIYFK-NH2; not fully specified (residue 13); also: homodimer via Ida linker on Lys13 side chain, Ida amine Boc) [compound 385] | < 10 µM | –
35 | 258 (Ac-ARRRRQ[dR]VAIIFK-NH2; not fully specified (residue 13); also: homodimer via Ida linker on Lys13 side chains) [compound 258] | < 10 µM | –
36 | 475 (Ac-PRRRNQAVAIYFK(Ida(3)); not fully specified (C-terminus); also: homodimer via Ida linker on Lys13 side chain) [compound 475] | < 10 µM | –
37 | KTKRKRKKQAAKIAYEEIFVQNM [compound 73] | > 30 µM | –
38 | 469 (Ac-ARRRRQRVAIYFKARRRRQRVAIYFK; not fully specified) [compound 469] | < 10 µM | –
